Measured values: the CATMoS acute toxicity set (Mansouri et al. 2021)

Experiment: GHS categories as the set defines them, by LD50: 1 up to 5, 2 up to 50, 3 up to 300, 4 up to 2000, 5 above 2000 mg/kg
Settings: rat; in vivo; po

`O=S(=O)(O)CCN1CCN(CCO)CC1` and `NCCS(=O)(=O)O` are the same in GHS category: 5 for the first, 5 for the second.

First: NC(=S)NS(=O)(=O)c1ccc(N)cc1
Second: CS(=O)(=O)c1ccc(O)c(Cl)c1
The GHS category of the first is higher: 5 for the first, 4 for the second.

`COc1ccc2c(c1)CCN(c1ccccc1)C2c1ccc(Br)cc1` (centres undefined) and `COc1ccc2c(c1)CCN(c1ccccc1)C2c1ccc(OCCN2CCCCC2)cc1` (centres undefined) are the same in GHS category: 4 for the first, 4 for the second.

`Cc1c(C)c2c(c(C)c1OC(=O)CCC(=O)O)CC[C@@](C)(CCC[C@H](C)CCC[C@H](C)CCCC(C)C)O2` and `CCC(COC(=O)c1ccccc1C(=O)OCC(CC)CC(C)C)CC(C)C` (centres undefined) are the same in GHS category: 5 for the first, 5 for the second.

`CC1CCCCCCCCCCCCC(=O)C1` (centres undefined) and `O=C1CCCCCCCCCCCCCCO1` are the same in GHS category: 5 for the first, 5 for the second.

`CCOC(=O)C(Cl)(Cl)Cl` and `CCCCCCC(=O)OCC` are the same in GHS category: 5 for the first, 5 for the second.

Compared with `CCC1(C)Oc2cccc(OC(=O)N(C)C(C)=O)c2O1` (centres undefined), `CCOC(=O)CC(=O)N1CCSC1COc1ccccc1OC` (centres undefined) is higher in GHS category: 3 for the first, 5 for the second.

`CCCCCCCCC=CCCCCCCOC(C)=O` and `CCCCCCCCCCCCC` are the same in GHS category: 5 for the first, 5 for the second.

`COC(=O)CCCCC(=O)OC` and `CCCCCC(=O)OCCC(C)C` are the same in GHS category: 5 for the first, 5 for the second.

`CCCCCCCCCCOC` and `CCCCCCCCCCN(C)C` are the same in GHS category: 5 for the first, 5 for the second.

Compared with `CN(C)CC(=O)N/N=C/c1c(Cl)nc2n1CCS2`, `Cc1cccc(Nc2cc(Cl)nc(SCC(=O)NCCO)n2)c1C` is higher in GHS category: 4 for the first, 5 for the second.

Going from `COc1ccc(C(=O)Nc2ccccc2)cc1N=Nc1c(O)c(C(=O)Nc2cc(Cl)ccc2OC)cc2ccccc12` to `O=C(Nc1ccc(Cl)c(Cl)c1)c1cc(Cl)cc(-c2ccccc2)c1O`, the GHS category falls from 5 to 4.

`CCc1oc2ccccc2c1C(=O)c1ccc(O)cc1` and `CCCCOC(=O)c1ccc(-n2nc(OC)c3ccccc32)cc1` are the same in GHS category: 5 for the first, 5 for the second.

`Cc1cc(NC(=O)NC(=O)c2c(F)cccc2F)nc(C)c1-c1ccc(Cl)cc1` and `O=C(Nc1ccc(Cl)cc1)Nc1ccc(Cl)c(Cl)c1` are the same in GHS category: 5 for the first, 5 for the second.

`CCCCN(c1nc(NCCCN(CCN(CCCNc2nc(N(CCCC)C3CC(C)(C)N(C)C(C)(C)C3)nc(N(CCCC)C3CC(C)(C)N(C)C(C)(C)C3)n2)c2nc(N(CCCC)C3CC(C)(C)N(C)C(C)(C)C3)nc(N(CCCC)C3CC(C)(C)N(C)C(C)(C)C3)n2)c2nc(N(CCCC)C3CC(C)(C)N(C)C(C)(C)C3)nc(N(CCCC)C3CC(C)(C)N(C)C(C)(C)C3)n2)nc(N(CCCC)C2CC(C)(C)N(C)C(C)(C)C2)n1)C1CC(C)(C)N(C)C(C)(C)C1` and `CCCCCCCCCC(=O)OCC(CC)(COC(=O)CCCCCCC)COC(=O)CCCCCCC` are the same in GHS category: 5 for the first, 5 for the second.

`CC/C=C\CCOC=O` and `C=CCCCCCCCCC=O` are the same in GHS category: 5 for the first, 5 for the second.

Going from `O=c1[nH]cnc2c1ncn2[C@H]1CC[C@@H](CO)O1` to `CCCNC(=O)c1cnc2c(C)cccn2c1=O`, the GHS category falls from 5 to 3.

Compared with `C[N@+]1(CCNP(=S)(NCC[N@@+]2(C)Cc3c(ccc4c3OCO4)[C@@H]3[C@H]2c2cc4c(cc2C[C@@H]3O)OCO4)NCC[N@@+]2(C)Cc3c(ccc4c3OCO4)[C@@H]3[C@H]2c2cc4c(cc2C[C@@H]3O)OCO4)Cc2c(ccc3c2OCO3)[C@@H]2[C@H]1c1cc3c(cc1C[C@@H]2O)OCO3`, `CCOc1ccc(Nc2ccc(C(=C3C=CC(=[N+](CC)Cc4cccc(S(=O)(=O)[O-])c4)C=C3C)c3ccc(N(CC)Cc4cccc(S(=O)(=O)O)c4)cc3C)cc2)cc1` is higher in GHS category: 4 for the first, 5 for the second.

Compared with `O=C(O)[C@H](O)[C@H](O)[C@@H](O)[C@H](O)[C@H](O)CO`, `CC(Oc1cccc(Cl)c1)C(=O)O` (centres undefined) is lower in GHS category: 5 for the first, 4 for the second.

`NC1CCN(c2nc3c(cc2F)c(=O)c(C(=O)O)cn3-c2ccc(F)cc2F)C1` (centres undefined) and `CC1N=C(c2ccccc2F)c2c(ccc(NC(=O)NCCO)c2Br)N(C)C1=O` (centres undefined) are the same in GHS category: 5 for the first, 5 for the second.

`O=C1c2ccc(N(c3ccc(Cl)cc3)c3ccc(Cl)cc3)cc2C(=O)N1Cc1cccnc1` and `O=C1c2ccccc2C(c2ccc(O)cc2)(c2ccc(O)cc2)N1c1ccccc1` are the same in GHS category: 5 for the first, 5 for the second.

`CNC(=O)C(=NNc1ccc(OC)cc1[N+](=O)[O-])C(C)=O` and `CNC(=O)C(=NNc1ccc([N+](=O)[O-])cc1)C(C)=O` are the same in GHS category: 5 for the first, 5 for the second.

`CN(C/C=C/C#CC(C)(C)C)Cc1cccc2ccccc12` and `O=Cc1c(O)ccc2ccccc12` are the same in GHS category: 5 for the first, 5 for the second.

`CCOC(=O)C1=C(COCCN2C(=O)c3ccccc3C2=O)NC(C)=C(C(=O)OC)C1c1ccccc1Cl` (centres undefined) and `CCOC(=O)C1N=C(c2ccccc2F)c2cc(Cl)ccc2NC1=O` (centres undefined) are the same in GHS category: 5 for the first, 5 for the second.

`CCCNC(=O)c1sc(-c2ccc(OC)cc2)nc1C` and `COc1ccc([C@@H]2Sc3ccccc3NC(=O)[C@@H]2O)cc1` are the same in GHS category: 5 for the first, 5 for the second.

Going from `CSC(C)=NOC(=O)N(C)SN(C)C(=O)Oc1ccccc1OC(=O)N(C)SN(C)C(=O)ON=C(C)SC` to `CC(C)=CCCC(C)CCOC(=O)Cc1ccccc1` (centres undefined), the GHS category rises from 4 to 5.

`CCCCCCCCCCCOC(=O)c1ccccc1C(=O)OCCCCCCCCCCC` and `CCCCCCCCCCCCCCCCCC(=O)OCCOCCO` are the same in GHS category: 5 for the first, 5 for the second.

`COC(=O)c1ccc(C(F)(F)F)nc1S(=O)(=O)NC(=O)Nc1nc(OC)cc(OC)n1` and `CCS(=O)(=O)c1cccnc1S(=O)(=O)NC(=O)Nc1nc(OC)cc(OC)n1` are the same in GHS category: 5 for the first, 5 for the second.

First: CCOC(=O)C(=O)Nc1cc(SCCOC(=O)C(=O)OCC)nc(C)n1
Second: CCO[Si](C)(CCCN)OCC
The GHS category of the first is lower: 4 for the first, 5 for the second.

Compared with `O=C1CCc2cc(OCCCCc3nnnn3C3CCCCC3)ccc2N1`, `COC12CC(COC3=CC(=O)CC3)CN(C)C1Cc1cn(C(C)(C)C)c3cccc2c13` (centres undefined) is lower in GHS category: 5 for the first, 4 for the second.

`CCCCC(CC)COCOCC(CC)CCCC` (centres undefined) and `CCCCCCCCC(C)C` are the same in GHS category: 5 for the first, 5 for the second.

First: CC[C@H](C)[C@H](NC(=O)[C@H](CCC(=O)O)NC(=O)[C@H](CO)NC(=O)[C@@H](NC(=O)[C@@H](N)CO)C(C)C)C(=O)N[C@@H](CCC(N)=O)C(=O)N[C@@H](CC(C)C)C(=O)N[C@@H](CCSC)C(=O)N[C@@H](Cc1cnc[nH]1)C(=O)N[C@@H](CC(N)=O)C(=O)N[C@@H](CC(C)C)C(=O)NCC(=O)N[C@@H](CCCCN)C(=O)N[C@@H](Cc1cnc[nH]1)C(=O)N[C@@H](CC(C)C)C(=O)N[C@@H](CC(N)=O)C(=O)N[C@@H](CO)C(=O)N[C@@H](CCSC)C(=O)N[C@@H](CCC(=O)O)C(=O)N[C@@H](CCCNC(=N)N)C(=O)N[C@H](C(=O)N[C@@H](CCC(=O)O)C(=O)N[C@@H](Cc1c[nH]c2ccccc12)C(=O)N[C@@H](CC(C)C)C(=O)N[C@@H](CCCNC(=N)N)C(=O)N[C@@H](CCCCN)C(=O)N[C@@H](CCCCN)C(=O)N[C@@H](CC(C)C)C(=O)N[C@@H](CCC(N)=O)C(=O)N[C@@H](CC(=O)O)C(=O)N[C@H](C(=O)N[C@@H](Cc1cnc[nH]1)C(=O)N[C@@H](CC(N)=O)C(=O)N[C@@H](Cc1ccccc1)C(=O)O)C(C)C)C(C)C
Second: CC(C)(C)c1cc(CCC(=O)NCCCCCCNC(=O)CCc2cc(C(C)(C)C)c(O)c(C(C)(C)C)c2)cc(C(C)(C)C)c1O
The GHS category of the first is lower: 2 for the first, 5 for the second.

Compared with `C=C(c1ccccc1)c1ccccc1`, `Cc1nc2ccccc2c(=O)n1-c1ccccc1C#N` is lower in GHS category: 5 for the first, 4 for the second.

`COc1cc(OC)nc(N=C(O)NS(=O)(=O)c2c(Cl)nc3ccccn23)n1` and `Cc1cnc2c(C(=O)O)c(Cl)ccc2c1` are the same in GHS category: 5 for the first, 5 for the second.

`C=CC1=C(C(=O)O)N2C(=O)[C@@H](NC(=O)/C(=N\O)c3csc(N)n3)[C@H]2SC1` and `CCC(=O)OCC(=O)[C@@]1(OC(=O)CC)[C@@H](C)C[C@H]2[C@@H]3CCC4=CC(=O)C=C[C@]4(C)[C@@]3(F)[C@@H](O)C[C@@]21C` are the same in GHS category: 5 for the first, 5 for the second.

`CCOP(=O)(OCC)c1ccccc1` and `CCCCOC(=O)c1ccc(-n2nc(OCCN(C)C)c3ccccc32)cc1` are the same in GHS category: 4 for the first, 4 for the second.

`c1ccc2sc(SSc3nc4ccccc4s3)nc2c1` and `CNc1ccc(Cl)cc1C(=O)c1ccccc1Cl` are the same in GHS category: 5 for the first, 5 for the second.

Going from `O=C(C(Cl)Cl)N(CCO)Cc1ccc(Oc2ccc([N+](=O)[O-])cc2)cc1` to `O=C(NCC(O)CCl)c1ccc([N+](=O)[O-])cc1` (centres undefined), the GHS category falls from 5 to 3.

`Cc1cc(C)[n+]([N-]C(=O)c2ccc(Cl)c(S(N)(=O)=O)c2)c(C)c1` and `Cc1cc(OC(=O)c2cc(Cl)ccc2OC(N)=O)ccc1Cl` are the same in GHS category: 5 for the first, 5 for the second.

`COc1cc2c(cc1OC)C(c1ccccc1F)N(c1ccccc1)CC2` (centres undefined) and `c1ccc(OCC2COC(Cn3cncn3)(c3cc4ccccc4o3)O2)cc1` (centres undefined) are the same in GHS category: 4 for the first, 4 for the second.

`CC1(C)[C@@H](O[C@H]2O[C@H](C(=O)O)[C@@H](O)[C@H](O)[C@H]2O[C@@H]2O[C@H](C(=O)O)[C@@H](O)[C@H](O)[C@H]2O)CC[C@]2(C)[C@H]3C(=O)C=C4[C@@H]5C[C@@](C)(C(=O)O)CC[C@]5(C)CC[C@@]4(C)[C@]3(C)CC[C@@H]12` and `CC(=O)OC1C(N2CCCC2)CC2C3CCC4CC(O)C(N5CCOCC5)CC4(C)C3CCC21C` (centres undefined) are the same in GHS category: 5 for the first, 5 for the second.

`CC12CCCC(O)(C1)C1CC(C)(C)C1CC2` (centres undefined) and `CC(C)(C1CCC(O)CC1)C1CCC(O)CC1` (centres undefined) are the same in GHS category: 5 for the first, 5 for the second.

`CCCCCBr` and `CCCCCCCCCCCCCCCCCCCCO` are the same in GHS category: 5 for the first, 5 for the second.

`FC(F)(F)C(F)(F)C(Cl)Cl` and `CC(C)(O)CCC(C)(C)O` are the same in GHS category: 5 for the first, 5 for the second.

`Nc1cc(Cl)c(Cl)cc1S(=O)(=O)O` and `CNC(C)C(O)c1ccc(NS(C)(=O)=O)cc1` (centres undefined) are the same in GHS category: 5 for the first, 5 for the second.

Compared with `CCCc1c(Cc2ccc(-c3ncccc3-c3nn[nH]n3)cc2)c(=O)nc2nc[nH]n12`, `CC(C)c1[nH]c2ccccc2c1C(=O)c1cccnc1` is higher in GHS category: 4 for the first, 5 for the second.

`COC(=O)CSP(=S)(OC)OC` and `CC1=CCC(C(C)(C)OC(=O)C(C)C)CC1` (centres undefined) are the same in GHS category: 5 for the first, 5 for the second.

`C[C@@H]1CN([C@H]2CC[C@](C#N)(c3ccc(F)cc3)CC2)CC[C@]1(C(=O)O)c1ccccc1` and `CC(C)(C)c1ccc(OCC2CO2)cc1` (centres undefined) are the same in GHS category: 5 for the first, 5 for the second.

`CC(C)c1cc(C(C)C)c([N+](=O)[O-])c(C(C)C)c1[N+](=O)[O-]` and `C=C[Si](C)(C)O[Si](O[Si](C)(C)C=C)(O[Si](C)(C)C=C)O[Si](C)(C)C=C` are the same in GHS category: 5 for the first, 5 for the second.

In the case of `CCCC1CCCC(=O)O1` (centres undefined), the GHS category was 5.
